Data: patent US10759751B2, “Substituted spirocyclohexanes as muscarinic M1 receptor and/or M4 receptor agonists” (Heptares Therapeutics Limited, priority 2016, dated 2020)
Like-named read-outs stand apart in the source and are kept apart here.

What was measured:
Assay type in all cases: cell-based
[1] = target: T1, human muscarinic M1 receptor (Homo sapiens, UniProt P11229); assay: Alphascreen Surefire phospho-ERK1/2 functional assay, M1; conditions: for EC50: phospho-ERK1/2, read-out: pEC50 M1 (converted); for Emax: CHO
T1 sequence (P11229 1-460): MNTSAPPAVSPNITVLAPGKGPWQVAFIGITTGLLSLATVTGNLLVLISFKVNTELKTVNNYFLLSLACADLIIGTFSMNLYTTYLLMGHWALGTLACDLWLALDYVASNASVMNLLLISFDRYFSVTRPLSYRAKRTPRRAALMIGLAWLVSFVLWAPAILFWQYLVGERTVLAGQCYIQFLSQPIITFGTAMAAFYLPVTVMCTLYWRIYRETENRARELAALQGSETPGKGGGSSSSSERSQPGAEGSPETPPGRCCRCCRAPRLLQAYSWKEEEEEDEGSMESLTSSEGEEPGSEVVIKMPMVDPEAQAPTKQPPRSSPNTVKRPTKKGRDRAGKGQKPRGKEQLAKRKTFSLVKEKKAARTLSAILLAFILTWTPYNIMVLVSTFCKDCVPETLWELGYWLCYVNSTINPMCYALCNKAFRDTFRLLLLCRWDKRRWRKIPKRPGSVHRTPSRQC
Summary of the method: (§1)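 CHO cells stably expressing human M1, M2, M3 or M4 receptor, serum-starved overnight, then stimulated with agonist for 5 min at 37 °C. Phospho-ERK1/2 quantified in lysates by AlphaScreen SureFire. pEC50 and Emax derived per subtype.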

[2] = target: T2, human muscarinic M2 receptor (Homo sapiens, UniProt P08172); assay: Alphascreen Surefire phospho-ERK1/2 functional assay, M2; conditions: for EC50: CHO cells stably expressing human M2, phospho-ERK1/2, read-out: pEC50 M2 (converted); for Emax: CHO, read-out: M2 % Emax cf. ACh
T2 sequence (P08172 1-466): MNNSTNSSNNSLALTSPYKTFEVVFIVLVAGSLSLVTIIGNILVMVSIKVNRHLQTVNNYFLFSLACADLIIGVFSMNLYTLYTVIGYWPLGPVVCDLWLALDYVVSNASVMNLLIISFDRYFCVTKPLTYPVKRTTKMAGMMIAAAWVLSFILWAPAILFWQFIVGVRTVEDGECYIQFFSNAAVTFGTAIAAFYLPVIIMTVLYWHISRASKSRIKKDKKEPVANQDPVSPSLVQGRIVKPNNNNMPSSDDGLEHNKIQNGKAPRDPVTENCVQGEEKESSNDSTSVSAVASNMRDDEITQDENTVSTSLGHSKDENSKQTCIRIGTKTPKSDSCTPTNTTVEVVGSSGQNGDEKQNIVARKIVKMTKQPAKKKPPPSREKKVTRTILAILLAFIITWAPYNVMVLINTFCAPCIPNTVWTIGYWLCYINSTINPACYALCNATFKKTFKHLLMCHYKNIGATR
Method: Functional assays were performed using the Alphascreen Surefire phospho-ERK1/2 assay (Crouch & Osmond, Comb. Chem. High Throughput Screen, 2008). ERK1/2 phosphorylation is a downstream consequence of both Gq/11 and Gi/o protein coupled receptor activation, making it highly suitable for the assessment of M1, M3 (Gq/11 coupled) and M2, M4 receptors (Gi/o coupled), rather than using different assay formats for different receptor subtypes. CHO cells stably expressing the human muscarinic M1, M2, M3 or M4 receptor were plated (25K/well) onto 96-well tissue culture plates in MEM-alpha+10% dialysed FBS. Once adhered, cells were serum-starved overnight. Agonist stimulation was performed by the addition of 5 μL agonist to the cells for 5 min (37° C.). Media was removed and 50 μL of lysis buffer added. After 15 min, a 4 μL sample was transferred to 384-well plate and 7 μL of detection mixture added. Plates were incubated for 2 h with gentle agitation in the dark and then read on a PHERAstar plate reader.
pEC50 and Emax figures were calculated from the resulting data for each receptor subtype.

[3] = target: T3, human muscarinic M3 receptor (Homo sapiens, UniProt P20309); assay: Alphascreen Surefire phospho-ERK1/2 functional assay, M3; conditions: for EC50: CHO cells stably expressing human M3, phospho-ERK1/2, read-out: pEC50 M3 (converted); for Emax: CHO, read-out: M3 % Emax cf. ACh
T3 construct: expressed in transfected cells
Summary of the method: as §1

[4] = target: T4, human muscarinic M4 receptor (Homo sapiens, UniProt P08173); assay: Alphascreen Surefire phospho-ERK1/2 functional assay, M4; conditions: for EC50: phospho-ERK1/2, read-out: pEC50 M4 (converted); for Emax: CHO
T4 construct: expressed in transfected cells
T4 sequence (P08173 1-479): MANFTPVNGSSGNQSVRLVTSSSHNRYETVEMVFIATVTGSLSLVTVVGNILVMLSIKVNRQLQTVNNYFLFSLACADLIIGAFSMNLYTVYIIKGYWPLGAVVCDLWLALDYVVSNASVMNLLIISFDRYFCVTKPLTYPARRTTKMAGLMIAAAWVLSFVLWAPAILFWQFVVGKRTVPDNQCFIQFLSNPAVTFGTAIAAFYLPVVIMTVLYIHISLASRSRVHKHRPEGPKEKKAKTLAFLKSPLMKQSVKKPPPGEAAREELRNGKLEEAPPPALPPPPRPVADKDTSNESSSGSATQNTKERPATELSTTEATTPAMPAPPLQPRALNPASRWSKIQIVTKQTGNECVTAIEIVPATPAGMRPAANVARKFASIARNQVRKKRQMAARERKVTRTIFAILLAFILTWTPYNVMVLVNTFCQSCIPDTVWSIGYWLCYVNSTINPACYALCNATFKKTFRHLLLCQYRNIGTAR
Summary of the method: as §1

[5] = CHO cells stably expressing human M1
[6] = read-out: M1 % Emax cf. ACh, CHO cells stably expressing human M1, Emax relative to ACh
[7] = CHO cells stably expressing human M4
[8] = read-out: M4 % Emax cf. ACh, CHO cells stably expressing human M4, Emax relative to ACh

T3 sequence (P20309 whole entry): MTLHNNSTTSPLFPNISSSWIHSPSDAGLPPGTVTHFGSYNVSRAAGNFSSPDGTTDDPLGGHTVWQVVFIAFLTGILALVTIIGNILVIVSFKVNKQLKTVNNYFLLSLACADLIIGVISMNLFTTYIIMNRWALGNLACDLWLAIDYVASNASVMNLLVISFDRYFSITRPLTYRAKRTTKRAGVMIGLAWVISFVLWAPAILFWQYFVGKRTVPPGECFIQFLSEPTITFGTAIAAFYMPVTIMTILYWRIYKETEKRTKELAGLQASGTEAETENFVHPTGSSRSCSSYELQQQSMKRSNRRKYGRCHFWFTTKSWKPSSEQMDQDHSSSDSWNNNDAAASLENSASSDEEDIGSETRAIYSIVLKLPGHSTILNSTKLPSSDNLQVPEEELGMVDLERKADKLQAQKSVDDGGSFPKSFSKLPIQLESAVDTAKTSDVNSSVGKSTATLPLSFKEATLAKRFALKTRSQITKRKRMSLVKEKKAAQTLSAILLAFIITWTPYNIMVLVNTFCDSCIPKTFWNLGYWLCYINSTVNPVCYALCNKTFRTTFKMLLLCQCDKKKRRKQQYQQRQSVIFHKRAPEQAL

Structure (SMILES) | EC50 [1, 5] [nM] | Emax [1, 6] [%] | EC50 [2] [nM] | Emax [2] [%] | EC50 [3] [nM] | Emax [3] [%] | EC50 [4, 7] [nM] | Emax [4, 8] [%] | Emax ([1]; read-out: M1 % Emax cf. ACh) [%] | Emax ([4]; read-out: M4 % Emax cf. ACh) [%] | M1 % Emax cf. ACh ([1]; CHO cells stably expressing human M1, Emax relative to ACh) [%] | M4 % Emax cf. ACh ([4]; CHO cells stably expressing human M4, Emax relative to ACh) [%]
CCOC(=O)N1CCCN(C2CCC(C#N)(c3ccc(Br)cn3)CC2)CC1 (single isomer, unassigned) [3-17 Isomer 1] | 3.02 | 92 | > 20000 | 0 | > 20000 | 0 | 72.4 | 80 |  |  |  | 
CCOC(=O)N[C@H]1CCN(C2CCC(C#N)(c3ccccc3)CC2)C1 (single isomer, unassigned) [1-1 Isomer 2] | 51.3 | 117 | > 20000 | 3 | > 20000 | 18 | > 20000 | 18 |  |  |  | 
CCOC(=O)N1CCCN(C2CCC(C#N)(c3ccc(F)cc3)CC2)CC1 (mixture of isomers) [3-3 mixture of isomers] | 9.77 | 101 | > 20000 | 38 | > 20000 | 35 | 63.1 | 85 |  |  |  | 
CCOC(=O)N1CCCN(C2CCC(C#N)(c3cccc(C)c3)CC2)CC1 (mixture of isomers) [3-8 mixture of isomers] | 35.5 | 106 | > 20000 | 18 | > 20000 | 7 | 105 | 62 |  |  |  | 
CCOC(=O)NCC1CCN(C2CCC(C#N)(c3ccccc3)CC2)CC1 (single isomer, unassigned) [6-2-Isomer 2] | 58.9 | 129 | > 20000 | 0 | > 20000 | 12 | 53.7 | 49 |  |  |  | 
COc1ccc2c(c1)C1(CCC(N3CCC[C@@H](c4nc(C)no4)C3)CC1)C(=O)N2 (single isomer, unassigned) [22-2 Isomer 1] | 70.8 | 55 | > 20000 | 12 | > 20000 | 21 | 537 | 42 |  |  |  | 
COC(=O)N1CCCN(C2CCC(C#N)(c3ccccc3)CC2)CC1 (mixture of isomers) [3-28 mixture of isomers] | 776 | 116 | > 20000 | 15 | > 20000 | 7 | 245 | 91 |  |  |  | 
CCOC(=O)N1CCC2CN(C3CCC(C#N)(c4ccccc4)CC3)CC21 (single isomer, unassigned) [15-1 Isomer 2] | 155 | 117 | > 20000 | 14 | > 20000 | 6 | 145 | 21 |  |  |  | 
Cc1noc(C2CC3(CCN(C4CCC(C#N)(c5ccccc5F)CC4)C3)C2)n1 (single isomer, unassigned) [21-2 Isomer 3] | 72.4 | 77 | > 20000 | 16 | > 20000 | 15 | 61.7 | 58 |  |  |  | 
CCOC(=O)N(C)[C@H]1CCN(C2CCC(C#N)(c3ccccc3)CC2)C1 (single isomer, unassigned) [1-20 Isomer 2] | 148 |  | > 20000 | 0 | > 20000 | 0 | > 20000 |  | 78 | 19 |  | 
CCOC(=O)N1CCC2(CCN(C3CCC4(CC3)C(=O)N(C(=O)OCC)c3ccccc34)CC2)C1 (single isomer, unassigned) [12-2 isomer 1] | 25.7 | 65 | > 20000 | 27 | > 20000 | 0 | 10.7 | 48 |  |  |  | 
CCOC(=O)N1CCCN(C2CCC3(CC2)C(=O)Nc2cc(OC)ccc23)CC1 (single isomer, unassigned) [4-11 isomer 2] | 132 | 107 | > 20000 | 9 | > 20000 | 2 | 309 | 55 |  |  |  | 
CCOC(=O)N1CCCN(C2CCC(C#N)(c3ccc(OCC)cn3)CC2)CC1 (single isomer, unassigned) [3-20 Isomer 2] | 11.5 | 139 | > 20000 | 27 | > 20000 | 2 | > 20000 | 7 |  |  |  | 
Cc1ccc2c(c1)NC(=O)C21CCC(N2CCC[C@@H](c3nc(C)no3)C2)CC1 (single isomer, unassigned) [22-4 Isomer 1] | 79.4 | 76 | > 20000 | 20 | > 20000 | 17 | 219 | 39 |  |  |  | 
CCOC(=O)N1CCCN(C2CCC(C#N)(c3ccc(OC)cc3)CC2)CC1 (mixture of isomers) [3-9 mixture of isomers] | 115 | 98 | > 20000 | 33 | > 20000 | 0 | > 20000 | 2 |  |  |  | 
CCCC(=O)N1CCCN(C2CCC3(CC2)C(=O)Nc2ccccc23)CC1 (single isomer, unassigned) [4-3 isomer 2] | 794 | 57 | > 20000 | 3 | > 20000 | 2 | > 20000 | 20 |  |  |  | 
CCOC(=O)N[C@H]1CCN(C2CCC3(CC2)C(=O)Nc2cc(F)ccc23)C1 (single isomer, unassigned) [2-7 isomer 2] | 52.5 |  | > 20000 | 5 | > 20000 | 2 | > 20000 |  |  |  | 89 | 16
CCOC(=O)N1CCCN(C2CCC(C#N)(c3cccc(F)c3)CC2)CC1 (mixture of isomers) [3-2 mixture of isomers] | 25.1 | 96 | > 20000 | 7 | > 20000 | 46 | 74.1 | 76 |  |  |  | 
CCc1noc([C@H]2CC[C@@H](NC3CCC(C#N)(c4ccccc4)CC3)C2)n1 (single isomer, unassigned) [19-2 Isomer 2] | 191 | 118 | 2400 | 35 | > 20000 | 5 | 138 | 96 |  |  |  | 
